Tests used:
[1] = system: O. sativa Volano-M3-CESA1 and CESA3 mutants; test: Greenhouse foliar application, crop injury on tilled Rice M3 generation cellulose synthase mutants (Table E10-1); assay type: in vivo, Oryza sativa; settings: foliar application 250 g ai/ha
Excerpt: (§1) Oryza sativa M2 Volano is a cellulose biosynthesis inhibitor susceptible rice risotto population that was subjected to sodium azide seed mutagenesis but was not tilled nor selected for CESA mutations. O. sativa Volano-M3-CESA1 and CESA3 mutants were selected from a subpopulation of O. sativa M2 Volano by sequencing CESA gene sequences in M2 plants and maintaining (producing seed through selfing) those individuals containing key mutations in these genes. The tolerance of the M3 CESA1 and CESA3 mutants was assessed using 6-(1-fluorocyclopentyl)-N2-(2,3,5,6-tetrafluorophenyl)-1,3,5-triazine-2,4-diamine, together with 1.0% DASH® EC adjuvant (BASF). The tolerance of M4 CESA1 and CESA3 mutants was assessed using 6-cyclopentyl-N4-(2,3,4,5,6-pentafluorophenyl)-1,3,5-triazine-2,4-diamine, together with 1.0% DASH® EC adjuvant (BASF).
M3 seed, which were harvested from tilled and selected individuals containing mutations in the CESA1 and CESA3 genes, were grown in the greenhouse under natural light conditions supplemented with 400 W sodium halide lamps under a 16 hr day length. Day/night temperatures were 26 and 20° C., respectively. The number of M3 plants from each line varied between 2 and 16, depending on seed availability and germination. A non-selective CBI, azine 6-(1-fluorocyclopentyl)-N2-(2,3,5,6-tetrafluorophenyl)-1,3,5-triazine-2,4-diamine, formulated with 1.0% DASH in a water volume of 375 L/ha was applied early post-emergent (one to two leaf stage) at a rate of 250 g ai/ha to M3 CESA1 and CESA3 mutant rice plants growing in soil in the greenhouse. Only plants originating from lines having more than four seeds were subjected to herbicide treatment. CESA mutant lines with four or fewer seeds were selfed for an additional generation and then tested at the M4 generation with 6-cyclopentyl-N4-(2,3,4,5,6-pentafluorophenyl)-1,3,5-triazine-2,4-diamine. M4 plants were grown under similar conditions as M3 plants and treated with 250 g ai/ha or 500 g ai/ha of 6-cyclopentyl-N4-(2,3,4,5,6-pentafluorophenyl)-1,3,5-triazine-2,4-diamine. […] Plants without any symptoms were recorded as “0%” injury. Increasing levels of reduced leaf mass and reduced stalk stiffness, with respect to the untreated control plants, were recorded in the range of “1 to 49%” injury. Increasing levels of leaf abnormalities and leaf necrosis, along with increased levels of lodging, relative to the untreated control plants, were recorded in the range of “50 to 85%” injury. Dead or dying plants with necrosis of the apex and severe lodging were recorded between “86-100%”. Data on individual plants was assessed and recorded due to the low number of individuals per line and the fact that the CESA mutations in the M2 generation were heterozygous and therefore segregating at the M3 and M4 generations. […]

[2] = system: Rice M4 CESA1 and CESA3 mutants; test: Greenhouse foliar application, crop injury on tilled Rice M4 generation cellulose synthase mutants (Table E10-2); assay type: in vivo, Oryza sativa
Excerpt: as §1
M3 seed, which were harvested from tilled and selected individuals containing mutations in the CESA1 and CESA3 genes, were grown in the greenhouse under natural light conditions supplemented with 400 W sodium halide lamps under a 16 hr day length. Day/night temperatures were 26 and 20° C., respectively. The number of M3 plants from each line varied between 2 and 16, depending on seed availability and germination. A non-selective CBI, azine 6-(1-fluorocyclopentyl)-N2-(2,3,5,6-tetrafluorophenyl)-1,3,5-triazine-2,4-diamine, formulated with 1.0% DASH in a water volume of 375 L/ha was applied early post-emergent (one to two leaf stage) at a rate of 250 g ai/ha to M3 CESA1 and CESA3 mutant rice plants growing in soil in the greenhouse. Only plants originating from lines having more than four seeds were subjected to herbicide treatment. CESA mutant lines with four or fewer seeds were selfed for an additional generation and then tested at the M4 generation with 6-cyclopentyl-N4-(2,3,4,5,6-pentafluorophenyl)-1,3,5-triazine-2,4-diamine. M4 plants were grown under similar conditions as M3 plants and treated with 250 g ai/ha or 500 g ai/ha of 6-cyclopentyl-N4-(2,3,4,5,6-pentafluorophenyl)-1,3,5-triazine-2,4-diamine. Previous kill curve greenhouse tests had identified that a rate of 250 g ai/ha of 6-(1-fluorocyclopentyl)-N2-(2,3,5,6-tetrafluorophenyl)-1,3,5-triazine-2,4-diamine and a rate of 250 g ai/ha 6-cyclopentyl-N4-(2,3,4,5,6-pentafluorophenyl)-1,3,5-triazine-2,4-diamine, both with 1.0% DASH, were sufficient doses to kill O. sativa M2 Volano check plants. […] Plants were assessed for crop injury, using a scale from 0% injury to 100% injury, at 11 and 21 days after treatment (DAT) for M3 plants applied with 6-(1-fluorocyclopentyl)-N2-(2,3,5,6-tetrafluorophenyl)-1,3,5-triazine-2,4-diamine and 36 DAT for M4 plants applied with 6-cyclopentyl-N4-(2,3,4,5,6-pentafluorophenyl)-1,3,5-triazine-2,4-diamine. Plants without any symptoms were recorded as “0%” injury. Increasing levels of reduced leaf mass and reduced stalk stiffness, with respect to the untreated control plants, were recorded in the range of “1 to 49%” injury. Increasing levels of leaf abnormalities and leaf necrosis, along with increased levels of lodging, relative to the untreated control plants, were recorded in the range of “50 to 85%” injury. Dead or dying plants with necrosis of the apex and severe lodging were recorded between “86-100%”. Data on individual plants was assessed and recorded due to the low number of individuals per line and the fact that the CESA mutations in the M2 generation were heterozygous and therefore segregating at the M3 and M4 generations. […]

[3] = Rice M4 OsCesA1 S827N (SEQ ID 51), parental plant Hom, 250 g ai/ha
[4] = Rice M4 OsCesA1 T952I (SEQ ID 51), parental plant Het, 500 g ai/ha

Row | SMILES | Crop Injury Assessment (%) at 20 DAT ([1]; Rice M3 OsCESA1 A1066T (SEQ ID 51), parental plant Het) [%] | Crop Injury Assessment (%) at 20 DAT ([1]; Rice M3 OsCESA1 S827N (SEQ ID 51), parental plant Het) [%] | Crop Injury Assessment (%) at 20 DAT ([1]; Rice M3 OsCESA1 V9231 (SEQ ID 51), parental plant Het) [%] | Crop Injury Assessment (%) at 20 DAT ([1]; Rice M3 OsCESA3 V1022L (SEQ ID 55), parental plant Hom) [%] | Crop injury assessment (%) at 23 DAT [2, 3] [%] | Crop injury assessment (%) at 36 DAT [2, 3] [%] | Crop injury assessment (%) at 23 DAT ([2]; Rice M4 OsCesA1 T952I (SEQ ID 51), parental plant Het, 250 g ai/ha) [%] | Crop injury assessment (%) at 23 DAT [2, 4] [%] | Crop injury assessment (%) at 36 DAT [2, 4] [%]
1 | Nc1nc(Nc2c(F)c(F)cc(F)c2F)nc(C2(F)CCCC2)n1 [6-(1-fluorocyclopentyl)-N2-(2,3,5,6-tetrafluorophenyl)-1,3,5-triazine-2,4-diamine] | 10 | 0 | 0 | 20 |  |  |  |  | 
2 | Nc1nc(Nc2c(F)c(F)c(F)c(F)c2F)nc(C2CCCC2)n1 [6-cyclopentyl-N4-(2,3,4,5,6-pentafluorophenyl)-1,3,5-triazine-2,4-diamine] |  |  |  |  | 0 | 0 | 0 | 10 | 10

Source: patent US12018267B2, “Plants having increased tolerance to herbicides” (BASF SE, priority 2015, dated 2024)
